Assay results reported in patent US6964949B2, “Pharmaceutical compositions for promoting the growth of gram-positive bacilli and increasing the acidity in the vagina and the use thereof” (Shanghai Jiao Da Onlly Co., Ltd., priority 2000, dated 2005).

Assays:
[1] = system: L. crispatus, C. albicans, C. tropicalis; test: Fluconazole in Sucrose Broth, Group 2 co-culture: turbidity and Gram-stained smear; assay type: cell-based; set-up: key to Turbidity, Group 2: ++: The cultural fluid was heavily turbid; +: The cultural fluid was turbid; +/−: The turbidity of the cultural fluid was not affirmative; key to Microbes (Gram-stained smear), Group 2: Lb: Lactobacilli; Candida; conditions: 18 hours, 37° C., candle jar
Method: (§1) • 1. Materials: • Sucrose Broth: 10.0% sucrose, 2.0% yeast extract, K2HPO40.5%, MgSO40.05%, MnSO40.1%, pH adjusted to 6.2, sterilized. • Anti-fungi drug: Fluconazole • Clinically isolated Lactobacillus strains: Lactobacillus acidophilus, Lactobacillus crispatus, and Lactobacillus jensenii. Three lactobacillus suspensions were prepared separately from each of these three lactobacillus strains. • Clinically isolated Candida strains: Candida albicans and Candida tropicalis. Two Candidal suspensions were prepared separately from each of these two candida strains. • 2.
(§2) • There were six tubes in each group and each tube contained 2ml Sucrose Broth and different concentration of Fluconazole, as shown in Table 1. • The turbidity values of three lactobacillus suspensions and two Candidal suspensions were tested by Turbidimeter and adjusted to 0.3. 50 ul of each prepared lactobacillus suspension and Candidal suspension were separately added into tubes according to Table 1. • All of these experimental tubes were put into candle jars as soon as the lactobacillus suspensions and candidal suspensions were added, and then incubated at 37° C. for 18 hours. • After 18 hours' incubation the turbidity of each tube was examined and Gram-stained smear of cultural fluid of corresponding tube was observed under microscopy to check microbes. Results

[2] = system: L. acidophilus, C. albicans, C. tropicalis; test: Fluconazole in Sucrose Broth, Group 1 co-culture: turbidity and Gram-stained smear; assay type: cell-based; set-up: key to Turbidity, Group 1: ++: The cultural fluid was heavily turbid; +: The cultural fluid was turbid; +/−: The turbidity of the cultural fluid was not affirmative; key to Microbes (Gram-stained smear), Group 1: Lb: Lactobacilli; Candida; conditions: 18 hours, 37° C., candle jar
Method: as §1, §2

[3] = system: three Lactobacillus strains; test: Fluconazole in Sucrose Broth: growth of the three Lactobacillus strains (Groups 1-3); assay type: cell-based; conditions: 400 ug/ml of Fluconazole, 18 hours
Method: as §1, §2

[4] = system: C. albicans, C. tropicalis; test: Fluconazole in Sucrose Broth, Group 4 (Candidal group): turbidity and Gram-stained smear; assay type: cell-based, Candida albicans, Candida tropicalis; set-up: key to Turbidity, Group 4: ++: The cultural fluid was heavily turbid; +: The cultural fluid was turbid; +/−: The turbidity of the cultural fluid was not affirmative; conditions: 18 hours; for Turbidity, Group 4: 37° C., candle jar
Method: as §1, §2

[5] = system: L. jensenii, C. albicans, C. tropicalis; test: Fluconazole in Sucrose Broth, Group 3 co-culture: turbidity and Gram-stained smear; assay type: cell-based, Lactobacillus jensenii, Candida albicans, Candida tropicalis; set-up: key to Turbidity, Group 3: ++: The cultural fluid was heavily turbid; +: The cultural fluid was turbid; +/−: The turbidity of the cultural fluid was not affirmative; key to Microbes (Gram-stained smear), Group 3: Lb: Lactobacilli; Candida; conditions: 18 hours, 37° C., candle jar
Method: as §1, §2

Structure (SMILES): OC(Cn1cncn1)(Cn1cncn1)c1ccc(F)cc1F [Fluconazole]
- Microbes (Gram-stained smear), Group 2 ([1]; Fluconazole 25 ug/ml): Lb
- Turbidity, Group 2 ([1]; Fluconazole 25 ug/ml): ++
- Microbes (Gram-stained smear), Group 2 ([1]; Fluconazole 50 ug/ml): Lb
- Turbidity, Group 2 ([1]; Fluconazole 50 ug/ml): ++
- Microbes (Gram-stained smear), Group 2 ([1]; Fluconazole 100 ug/ml): Lb
- Turbidity, Group 2 ([1]; Fluconazole 100 ug/ml): ++
- Microbes (Gram-stained smear), Group 2 ([1]; Fluconazole 200 ug/ml): Lb
- Turbidity, Group 2 ([1]; Fluconazole 200 ug/ml): ++
- Microbes (Gram-stained smear), Group 2 ([1]; Fluconazole 400 ug/ml): Lb
- Turbidity, Group 2 ([1]; Fluconazole 400 ug/ml): ++
- Microbes (Gram-stained smear), Group 1 ([2]; Fluconazole 25 ug/ml): Lb
- Turbidity, Group 1 ([2]; Fluconazole 25 ug/ml): ++
- Microbes (Gram-stained smear), Group 1 ([2]; Fluconazole 50 ug/ml): Lb
- Turbidity, Group 1 ([2]; Fluconazole 50 ug/ml): ++
- Microbes (Gram-stained smear), Group 1 ([2]; Fluconazole 100 ug/ml): Lb
- Turbidity, Group 1 ([2]; Fluconazole 100 ug/ml): ++
- Microbes (Gram-stained smear), Group 1 ([2]; Fluconazole 200 ug/ml): Lb
- Turbidity, Group 1 ([2]; Fluconazole 200 ug/ml): ++
- Microbes (Gram-stained smear), Group 1 ([2]; Fluconazole 400 ug/ml): Lb
- Turbidity, Group 1 ([2]; Fluconazole 400 ug/ml): ++
- growth of three Lactobacillus strains [3]: didn't inhibit the growth
- growth of the two Candidal strains ([4]; 25 ug/ml or greater concentration of Fluconazole): inhibited the growth
- Turbidity, Group 4 ([4]; Fluconazole 25 ug/ml): +/−
- Turbidity, Group 4 ([4]; Fluconazole 50 ug/ml): +/−
- Turbidity, Group 4 ([4]; Fluconazole 100 ug/ml): +/−
- Turbidity, Group 4 ([4]; Fluconazole 200 ug/ml): +/−
- Turbidity, Group 4 ([4]; Fluconazole 400 ug/ml): +/−
- Microbes (Gram-stained smear), Group 3 ([5]; Fluconazole 25 ug/ml): Lb
- Turbidity, Group 3 ([5]; Fluconazole 25 ug/ml): ++
- Microbes (Gram-stained smear), Group 3 ([5]; Fluconazole 50 ug/ml): Lb
- Turbidity, Group 3 ([5]; Fluconazole 50 ug/ml): ++
- Microbes (Gram-stained smear), Group 3 ([5]; Fluconazole 100 ug/ml): Lb
- Turbidity, Group 3 ([5]; Fluconazole 100 ug/ml): ++
- Microbes (Gram-stained smear), Group 3 ([5]; Fluconazole 200 ug/ml): Lb
- Turbidity, Group 3 ([5]; Fluconazole 200 ug/ml): ++
- Microbes (Gram-stained smear), Group 3 ([5]; Fluconazole 400 ug/ml): Lb
- Turbidity, Group 3 ([5]; Fluconazole 400 ug/ml): ++
